Laboratory results taken from patent US8058306B2, “Phenyl pyrrole aminoguanidine derivatives” (Action Pharma A/S, priority 2006, dated 2011).

Tests used:
human MC3 receptor = target: T1, human MC3 receptor (Homo sapiens, UniProt P41968); test: [125I]-NDP-MSH radio-ligand binding, MC3 (h) receptor (recombinant CHO cells); conditions: 60 min/37° C.
T1 construct: expressed in transfected cells; host or cells: CHO cells
Protocol: (§1) Determination of binding affinities for MC receptors was performed by [^125I]-[Nle4,D-Phe7]α-MSH ([^125I]-NDP-MSH) radio-ligand binding. In short, murine B16-F1 melanoma cells expressing MC1, but not other MC receptors, were used for binding affinity studies against the murine MC1 receptor (Siegrist et al.; 1988, J. Recept. Res., 8(1-4):323-43). For human MC3, MC4 and MC5 receptor affinities human recombinant CHO cells were used (Schioth et al. 1997, Neuropeptides 31:565-71, 1997). Cells were suspended in HEPES buffer and by use of microwell plates radio-ligands, as well as test compound, in the concentration range of 10^−10 to 10^−6 were added. After incubation at 37° C. (22° C. for the MC1 receptor assay) separation of bound and free [^125I]-NDP-MSH was done by multiple washings with buffer.
(§2) The results were expressed as a percent of control specific binding obtained in the presence of the test compounds. The IC50 values (concentration causing a half-maximal inhibition of control specific binding) and Hill coefficients (nH) were determined by non-linear regression analysis of the competition curves using Hill equation curve fitting. The inhibition constants (Ki) were calculated from the Cheng Prusoff equation (Ki=IC50/(1+(L/KD)), where L=concentration of radio-ligand in the assay, and KD=affinity of the radio-ligand for the receptor).

human MC4 receptor = target: T2, human MC4 receptor (Homo sapiens, UniProt P32245); test: [125I]-NDP-MSH radio-ligand binding, MC4 (h) receptor (recombinant CHO cells); conditions: 120 min/37° C.
T2 construct: expressed in transfected cells; host or cells: CHO cells
T2 sequence (P32245 whole entry): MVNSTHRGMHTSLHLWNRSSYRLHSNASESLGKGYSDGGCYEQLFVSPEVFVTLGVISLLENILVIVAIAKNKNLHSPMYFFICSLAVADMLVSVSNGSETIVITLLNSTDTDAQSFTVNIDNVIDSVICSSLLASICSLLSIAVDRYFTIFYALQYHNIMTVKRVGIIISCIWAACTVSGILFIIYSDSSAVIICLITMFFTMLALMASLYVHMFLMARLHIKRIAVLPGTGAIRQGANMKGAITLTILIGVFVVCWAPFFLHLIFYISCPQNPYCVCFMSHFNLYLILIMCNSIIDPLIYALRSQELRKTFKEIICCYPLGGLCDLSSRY
Protocol: as §1, §2

human MC5 receptor = target: T3, human MC5 receptor (Homo sapiens, UniProt P33032); test: [125I]-NDP-MSH radio-ligand binding, MC5 (h) receptor (recombinant CHO cells); conditions: 60 min/37° C.
T3 construct: expressed in transfected cells; host or cells: CHO cells
T3 sequence (P33032 whole entry): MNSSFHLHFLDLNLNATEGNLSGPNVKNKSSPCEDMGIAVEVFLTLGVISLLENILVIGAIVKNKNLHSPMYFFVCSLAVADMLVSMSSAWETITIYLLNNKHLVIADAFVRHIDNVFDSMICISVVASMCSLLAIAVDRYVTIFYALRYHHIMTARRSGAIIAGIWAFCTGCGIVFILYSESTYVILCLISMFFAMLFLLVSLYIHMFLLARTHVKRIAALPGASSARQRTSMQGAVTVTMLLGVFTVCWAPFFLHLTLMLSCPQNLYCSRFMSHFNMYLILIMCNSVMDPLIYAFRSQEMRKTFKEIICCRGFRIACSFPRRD
Protocol: as §1, §2

murine MC1 receptor = target: T4, murine MC1 receptor (Mus musculus, UniProt Q01727); test: [125I]-NDP-MSH radio-ligand binding, MC1 receptor (B16-F1 melanoma cells); conditions: 90 min/22° C.
T4 construct: murine B16-F1 melanoma cells expressing MC1, but not other MC receptors, were used; endogenous in cells; host or cells: murine B16-F1 melanoma cells
T4 sequence (Q01727 whole entry): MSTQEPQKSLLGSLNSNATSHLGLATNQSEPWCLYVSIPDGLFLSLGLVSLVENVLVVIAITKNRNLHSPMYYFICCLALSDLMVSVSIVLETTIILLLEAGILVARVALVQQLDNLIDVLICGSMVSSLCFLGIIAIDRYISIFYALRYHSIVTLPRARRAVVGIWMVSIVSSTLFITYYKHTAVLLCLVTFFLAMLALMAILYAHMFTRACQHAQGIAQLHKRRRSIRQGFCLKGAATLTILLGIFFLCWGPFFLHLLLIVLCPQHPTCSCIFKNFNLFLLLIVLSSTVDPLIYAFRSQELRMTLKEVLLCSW
Protocol: as §1, §2

Measured: Ki

T1 sequence (P41968 whole entry): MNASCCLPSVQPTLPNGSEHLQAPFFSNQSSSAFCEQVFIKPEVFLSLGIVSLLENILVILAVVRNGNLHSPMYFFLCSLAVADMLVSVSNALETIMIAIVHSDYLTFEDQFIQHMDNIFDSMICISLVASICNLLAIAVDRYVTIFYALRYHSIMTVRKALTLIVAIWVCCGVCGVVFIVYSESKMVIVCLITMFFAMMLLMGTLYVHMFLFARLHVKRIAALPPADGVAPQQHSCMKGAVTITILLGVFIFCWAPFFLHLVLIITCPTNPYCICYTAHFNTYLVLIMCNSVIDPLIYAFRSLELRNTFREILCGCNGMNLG

N=C(N)NN=Cc1cccn1-c1ccccc1[N+](=O)[O-] [Reference-compound 2, [1-[2-nitrophenyl)-1H-pyrrol-2-yl-methyleneamino]guanidinium acetate, reference compound]
> 1000 nM: all assays above

N=C(N)NN=Cc1cccn1-c1ccc(Cl)cc1 [Reference-compound 1, [1-[4-chlorophenyl)-1H-pyrrol-2-yl-methyleneamino]guanidinium acetate, reference compound]
> 1000 nM: all assays above
